In patent US9040488B2, “Imino sugar derivatives demonstrate potent antiviral activity and reduced toxicity” (Baruch S. Blumberg Institute, priority 2008, dated 2015):
Where two headings read alike, the source gives them in different places.

Legend:
[1] = system: MDBK cells; assay: Cytotoxicity (MTT) in MDBK cells; type: cell-based
Procedure: (§1) Compound toxicity assay. Compound cytotoxicity was assessed by using an MTT based toxicity assay kit (Sigma, St. Louis, Mo.) as described elsewhere. Briefly, cells cultured under conditions identical to those used in the viral assay were incubated with various concentrations of the compound for 72 hours. MTT was added to the media to a final concentration of 0.5 mg/ml and was incubated for 3 hours at 37 C. After the culture media was removed, formazan crystals was dissolved by adding 150 ul of solubilization solution (10% Triton X-100, 0.1N HCl in anhydrous isopropanol) for 15-30 minutes. The absorbance of the dissolved formazan was measured spectrophotometrically at 570 nm with absorbance at 690 nm as background.

[2] = system: BVDV (NADL strain); type: cell-based, Bovine viral diarrhea virus
[3] = in vivo, po, 100 mg/kg
[4] = system: vero cells
[5] = system: HCV; assay: HCV infection, intracellular HCV RNA level by real-time RT-PCR; type: cell-based, hepatitis C virus; settings: for EC50: read-out: EC50 against HCV infection; for EC90: read-out: EC90 against HCV infection
Description: Another embodiment of the present invention is the use of imino sugar glucosidase inhibitors in the treatment of HCV. Imino sugar glucosidase inhibitors show equal or better efficacy than celgosivir.

[6] = system: Tacaribe virus (21573 strain); type: cell-based
[7] = system: BHK cells; assay: Cytotoxicity (MTT) in BHK cells; type: cell-based
Procedure: as §1

[8] = Cytotoxicity (CC50) in the HCV infection test; type: cell-based; settings: Table 3, HCV infection test
[9] = system: Dengue virus (DV) serotype 2, New Guinea C; assay: microbe, parasite or virus in culture; type: cell-based
[10] = system: Ebola (Zaire strain); type: cell-based, Ebola virus
[11] = system: Junin virus (JUNV, Romero strain); type: cell-based
[12] = Cytotoxicity (MTT) in BHK cells; type: cell-based; settings: hamster; BHK cells (for Dengue and West Nile virus), 3 days treatment
Procedure: as §1

[13] = system: West Nile virus (2002 Texas isolate); assay: microbe, parasite or virus in culture; type: cell-based
[14] = system: BVDV (NADL strain); settings: tissue culture, test viruses such as BVDV and DV; cited from earlier work
[15] = BHK cells (for Dengue and West Nile virus), 3 days treatment, read-out: CC50
[16] = Table 5, read-out: CC50 in BHK cells

Row | SMILES | CC50 [1] | EC50 [2] | EC90 [2] | CC50 [4] | EC50 [5] | EC90 [5] | EC50 [6] | EC90 [6] | CC50 [7, 15] | CC50 [7, 16] | CC50 [8] | EC50 ([9]; read-out: DV EC50) | EC90 ([9]; read-out: DV EC90) | EC50 ([9]; read-out: Dengue EC50) | EC90 ([9]; read-out: Dengue EC90) | EC50 [10] | EC90 [10] | EC50 [11] | EC90 [11] | EC50 ([13]; read-out: West Nile EC50) | other results
1 | CC(=O)O.OC[C@@H]1[C@@H](O)[C@H](O)[C@@H](O)CN1CCCCCCC1(O)CCCCC1 [CM-9-70] | > 500 µM | 18 µM | 82.5 µM | – | – | – | – | – | – | – | – | – | – | – | – | – | – | – | – | – | anti-BVDV activity [2]: retains similar antiviral activity
2 | CC(=O)O.CC1CCC(OCCCCCCN2C[C@H](O)[C@@H](O)[C@H](O)[C@H]2CO)CC1 (stereo partly shown) [CM-9-78] | > 500 µM | 8.1 ± 3.4 µM | 59 ± 22 µM | > 500 µM | 5 µM | 160 µM | 10 µM | > 100 µM | > 100 µM | > 40 µM | > 500 µM | 6.75 µM | 13 µM | 6.8 µM | 13 µM | 7.5 µM | > 100 µM | 2 µM | > 100 µM | – | plasma concentration [3]: above 30 μM
3 | O[C@H]1[C@H](O)[C@@H](O)CN2CC[C@H](O)[C@H]12 [Castano., Castanospermin] | – | – | – | – | 295 µM | > 500 µM | – | – | – | – | > 500 µM | – | – | – | – | – | – | – | – | – | –
4 | CCCC(=O)O[C@H]1CN2CC[C@H](O)[C@@H]2[C@@H](O)[C@@H]1O [Celgosivir, celgosivir] | – | – | – | – | – | – | – | – | – | – | > 500 µM | – | – | – | – | – | – | – | – | – | EC50 ([5]; Hepatitis C virus): 3.8 µM; EC90 ([5]; Hepatitis C virus): 100 µM
5 | OC[C@H]1NC[C@H](O)[C@@H](O)[C@@H]1O [DNJ, deoxynojirimycin, reference compound] | – | – | – | – | – | – | – | – | – | – | – | – | – | – | – | – | – | – | – | – | CC50 at 72 h [12]: 20 to 100 µM; EC50 ([9]; Dengue virus, BHK, read-out: Dengue EC50): 500 µM; EC50 ([13]; West Nile virus, BHK, read-out: West Nile EC50): > 500 µM
6 | CCCCN1C[C@H](O)[C@@H](O)[C@H](O)[C@H]1CO [NBDNJ, N-butyl-DNJ, reference compound] | – | – | – | – | – | – | – | – | 20 to 100 µM | – | – | – | – | – | – | – | – | – | – | > 100 µM | –
7 | CCCCCCCCCN1C[C@H](O)[C@@H](O)[C@H](O)[C@H]1CO [NNDNJ, N-nonyl-DNJ, reference compound] | 245 ± 134 µM | 7.3 ± 0.4 µM | 71 ± 7.1 µM | 100 µM | 2.5 µM | > 500 µM | 3 µM | 70 µM | 20 to 100 µM | – | 280 µM | – | – | 1 to 4 µM | 3 to 10 µM | 12 µM | 85 µM | 0.7 µM | > 100 µM | 4 µM | potency compared with DNJ or short alkyl side chain DNJ derivatives such as NBDNJ [14]: 100 times
8 | OC[C@@H]1[C@@H](O)[C@H](O)[C@@H](O)CN1CCCCCC1(O)CCCCC1 [OSL95-II, N-pentyl-(1-hydroxycyclohexyl)-DNJ, reference compound] | > 500 µM | 10.9 ± 2.7 µM | > 100 µM | > 500 µM | 6 µM | 125 µM | 29 µM | > 100 µM | > 100 µM | > 100 µM | > 500 µM | 4 µM | 8.7 µM | 4 µM | 8.7 µM | 0.6 µM | 8 µM | 0.75 µM | 68 µM | 4.5 µM | EC50 ([13]; read-out: WNV EC50): 4.5 µM
9 | CC(C)[C@@H]1CC[C@@H](C)C[C@H]1OCCCCCCN1C[C@H](O)[C@@H](O)[C@H](O)[C@H]1CO [PBDNJ0801] | 235 ± 21 µM | 1.6 ± 1.2 µM | 14.8 ± 3.9 µM | – | – | – | – | – | 80 µM | 70 µM | – | 0.1 µM | 0.2 µM | 0.1 µM | 0.2 µM | – | – | – | – | 4.75 µM | EC50 ([13]; read-out: WNV EC50): 4.75 µM; EC90 ([13]; read-out: WNV EC90): 19 µM; EC90 ([13]; read-out: West Nile EC90): 19 µM
10 | Cc1ccc(C)c(OCCCCCCN2C[C@H](O)[C@@H](O)[C@H](O)[C@H]2CO)c1 [PBDNJ0803] | 485 ± 21 µM | 3.7 ± 3.8 µM | 29.2 ± 29 µM | 300 µM | – | – | 2 µM | 75 µM | 85 µM | 75 µM | – | 0.1 µM | 0.6 µM | 0.1 µM | 0.6 µM | – | – | 0.5 µM | 2 µM | 1.5 µM | antiviral activity against Junin virus infection [11]: most potent; EC50 ([13]; read-out: WNV EC50): 1.5 µM; EC90 ([13]; read-out: WNV EC90): 20 µM; EC90 ([13]; read-out: West Nile EC90): 20 µM
11 | C[C@@H]1CCCCC1OCCCCCCN1C[C@H](O)[C@@H](O)[C@H](O)[C@H]1CO (stereo partly shown) [PBDNJ0804] | > 500 µM | 3 ± 1.4 µM | 13 ± 1.7 µM | 500 µM | – | – | 1.5 µM | 50 µM | 65 µM | 70 µM | – | 0.075 µM | 0.6 µM | 0.08 µM | 0.6 µM | 0.5 µM | 5 µM | 0.45 µM | 0.9 µM | 3.5 µM | antiviral activity against Junin virus infection [11]: most potent; EC50 ([13]; read-out: WNV EC50): 3.5 µM; EC90 ([13]; read-out: WNV EC90): 33 µM; EC90 ([13]; read-out: West Nile EC90): 33 µM
